Data taken from patent publication US8148328B2, “Salicylanilides enhance oral delivery of therapeutic peptides” (The Regents of the University of California, priority 2006, dated 2012).
Counter-ions that a name gives are not always drawn. Like-named read-outs stand apart in the source and are kept apart here. Residues, ends and D or L forms follow the SMILES beside them. No end group written: not given here.

Columns and labels:
[1] = test system: LDL-induced monocyte chemotactic activity in cultures of human aortic endothelial cells; test: HDL-inflammatory index of HDL from treated apoE null mice; type: in vivo; details: for HDL-inflammatory index, potency relative to niclosamide: FIG. 24: salicylanilide 10:1 with 5 μg D-4F or L-4F by stomach tube, 6 hours
Text: 11-month-old female apoE null mice were fasted during the day. At night the mice were provided chow containing or not containing additions. In the first experiment the mice were given chow alone (C) or chow supplemented with 8.0 micrograms of Niclosamide (2′,5-Dichloro-4′-nitrosalicylanilide; Niclosamide, Sigma catalog number N-3510 Page 1711 2006-2007 catalog Empirical Formula (Hill Notation): C13H8C12N2O4 Formula Weight: 327.12, CAS Number: 50-65-7 Batch 105K0666 EC 200-056-8) per gram of chow (D) or chow supplemented with 2.0 micrograms of L-4F (free base) per gram of chow (E), or chow supplemented with 8.0 micrograms of Niclosamide together with 2.0 micrograms of L-4F (free base) per gram of chow (F). The mice were only given one gram of chow per mouse (n=8 mice per group) so that they would consume all of the chow. In the morning after the chow was consumed the mice were bled and their plasma was sucrose cryopreserved and fractionated by FPLC and the HDL-containing fractions were tested for their ability to inhibit monocyte chemotactic activity induced by a standard control human LDL (A) in cultures of human aortic endothelial cells. The mouse HDL (C-J) was also compared to a standard human HDL (B) that was added at the same concentrations as the mouse HDL. The resulting monocyte chemotactic activity was normalized to the standard control LDL added alone (A). The results are plotted as the HDL-inflammatory index, which is the result of dividing the monocyte chemotactic activity measured for each condition by the monocyte chemotactic activity obtained by the standard control LDL added alone, which was normalized to 1.0 as described previously (Navab et al. (2004) J Lipid Res, 45: 993-1007).
A second experiment was performed as described for the first experiment with 8 mice in each group except that the additions to the chow were different. Chow alone in the second experiment (G) was compared to chow supplemented with 100 micrograms of Niclosamide per gram of chow (H), or supplemented with 10 micrograms of L-4F (free base) per gram of mouse chow (I), or supplemented with 10 micrograms of L-4F (free base) together with 100 micrograms of Niclosamide per gram of chow (J). As in the first experiment the mice were only given one gram of chow per mouse so that they would consume all of the chow. In the morning this second group of mice were bled and their HDL tested in the human artery wall cell culture together with the HDL from the first experiment.
Ten mg of Niclosamide was placed in a glass-glass homogenizer with mortar and round bottom pestle (Kontes Dounce Tissue grinder, K885300-0015 available from Fisher, VWR) and 200 μL of ethanol was added. The Niclosamide ethanol mixture was homogenized using 2-3 strokes and distilled water was added and the mixture further homogenized using 5-10 strokes and the volume was adjusted to 10 mL with distilled water. Serial dilutions of this mixture were made using distilled water to give the micrograms of Niclosamide shown on the x-axis, which were contained in 100 μL. L-4F (free base) was diluted with water to give 10 μg per 100 μL of water. One hundred microliters of the Niclosamide solution was given by stomach tube to each mouse in each group of twelve-month-old non-fasting female apoE null mice (n=4 per group) and immediately followed by 100 μL containing 10 μg of L-4F (free base) in water. The mice were fasted and after 7 hours they were bled and their plasma was sucrose cryopreserved. The plasma was fractionated by FPLC and the HDL-containing fractions were tested for their ability to inhibit the induction of monocyte chemotactic activity by a standard control human LDL, which was added to cultures of human aortic endothelial cells. The standard control human LDL was also added by itself or with a standard control human HDL. The values obtained by the standard control human LDL alone were normalized to 1.0. […]

[2] = Solubilization of niclosamide in water with or without L-4F; type: physicochemical; details: even when added in ethanol and homogenized
Protocol: Niclosamide at 10 mg per mL was added to water, or to water containing 1.0 mg/mL L-4F (free base) and was homogenized in a glass-glass homogenizer. The solutions were stored at 4° C. for ten days and photographed
Niclosamide at 10 mg per mL was added to water, or to water containing 1.0 mg/mL L-4F (free base) and was homogenized in a glass-glass homogenizer.

aortic sinus lesion area = test: Lesion regression in old apoE null mice, six months in chow; type: in vivo; details: FIGS. 32-34: niclosamide 2 mg and/or L-4F 200 μg/mouse/day in chow, pravastatin 50 μg/mouse/day, 26 weeks
Text: Ninety-five female apoE null mice age 9.5 months from the UCLA breeding colony were identified. Twenty-three were sacrificed at time Zero (Group I) to establish lesion area at the start of the experiment. The remainder of the mice were divided into three groups of 24 mice each and the following additions were made to the chow for each group: Group II: Niclosamide at 2,000 micrograms/mouse/day; Group III: L-4F at 200 micrograms/mouse/day; Group IV: L-4F at 200 micrograms/mouse/day plus Niclosamide at 2,000 micrograms/mouse/day. All groups received 50 micrograms/mouse/day of pravastatin in their drinking water. At the veterinarian's request because of fighting and/or ulcerative dermatitis mice were euthanized prior to the end of the experiment as follows: 6 mice from Group II; 5 mice from Group III; 4 mice from Group IV. After six months the remaining mice were sacrificed and aortic sinus lesion area was determined as described previously (Id.).
In still another experiments, nine and half months-old female apoE null mice were divided into four groups: Group I was sacrificed to establish base line lesion area (Time Zero). Group II received niclosamide at 2 mg/mouse/day in rodent chow. Group III received L-4F at 200 μg/mouse/day in rodent chow. […] After 26 weeks the mice were sacrificed and aortic sinus lesion area was determined.

[3] = cited from earlier work; for solubility in water: 20° C., ethanolamine salt in distilled water
[4] = test system: LDL-induced monocyte chemotactic activity in cultures of human aortic endothelial cells; details: mice, oral, without niclosamide; human artery wall cells (Navab 2002); cited from earlier work
[5] = mouse, in vivo
[6] = mouse, in vivo; cited from earlier work
[7] = test system: inflammatory response induced by the action of HPODE oxidizing PAPC in cocultures of human artery wall cells; details: apoE null mice, drinking water 24 hours; D-4F 1 μg/ml, atorvastatin or pravastatin 0.05 mg/ml; cited from earlier work
[8] = Fate of peptides after an oral dose (degradation, association with HDL, clearance from the circulation)
[9] = test system: monocyte chemotactic activity in cultures of human aortic endothelial cells; test: LDL-inflammatory index of LDL from treated apoE null mice; type: in vivo; details: FIG. 25: co-administered with D-4F or L-4F, mice of FIG. 24
[10] = mouse, in vivo, 100 ug
Protocol: (§1) Fasted apoE null mice 6-months of age (n=4 per group) were administered by stomach tube ^14C-L-4F (21,000 dpm containing 10 micrograms of L-4F per mouse) with or without 100 micrograms of niclosamide in 200 microliters. Fasting was continued and the mice were bled at the time points shown on the X-axis and the dpm per mL plasma determined.
(§2) Fasted female apoE null mice 6-months of age (n=4 per group) were administered by stomach tube L-4F (21,000 dpm containing 10 micrograms of L-4F per mouse) with or without 100 micrograms of niclosamide in 200 μL 0.1% Tween20 in ammonium bicarbonate at pH 7.0. Fasting was continued and the mice were bled at the time points shown on the X-axis in FIG. 27 and the dpm per mL plasma determined.

[11] = mouse, in vivo; remark: listed apart in the source
Protocol: as §1, §2

[12] = FIG. 8: female apoE null mice, overnight in chow, niclosamide 8 or 100 μg and/or L-4F 2 or 10 μg per gram of chow
[13] = FIG. 22: 10 μg peptide with or without niclosamide 10:1, pH 8.0, stomach tube, 7 hours

## O=C(Nc1ccc([N+](=O)[O-])cc1Cl)c1cc(Cl)ccc1O [Niclosamide, 2′5-dichloro-4′-nitrosalicylanilide]
[1]; [12]
  HDL-inflammatory index: ineffective
[1]; FIG. 24: salicylanilide administered without the peptides
  HDL-inflammatory index: neither niclosamide nor the new salicylanilides were anti-inflammatory
[2]
  solubility in aqueous solutions: relatively insoluble
Aortic sinus lesion area
  lesions in old apoE null mice versus time zero: neither niclosamide nor L-4F without niclosamide significantly reduced lesions
[3]
  solubility in water: 5 to 8 µg/mL
  solubility in acetone: soluble in acetone
  solubility in ether, ethanol and chloroform: sparingly soluble
[3]; moist environments
  stability in tablets: undergoes a biodegradation

## CC(=O)N[C@@H](CC(=O)O)C(=O)N[C@@H](Cc1c[nH]c2ccccc12)C(=O)N[C@@H](Cc1ccccc1)C(=O)N[C@@H](CCCCN)C(=O)N[C@@H](C)C(=O)N[C@@H](Cc1ccccc1)C(=O)N[C@@H](Cc1ccc(O)cc1)C(=O)N[C@@H](CC(=O)O)C(=O)N[C@@H](CCCCN)C(=O)N[C@H](C(=O)N[C@@H](C)C(=O)N[C@@H](CCC(=O)O)C(=O)N[C@@H](CCCCN)C(=O)N[C@@H](Cc1ccccc1)C(=O)N[C@@H](CCCCN)C(=O)N[C@@H](CCC(=O)O)C(=O)N[C@@H](C)C(=O)N[C@@H](Cc1ccccc1)C(N)=O)C(C)C [L-4F, Ac-D-W-F-K-A-F-Y-D-K-V-A-E-K-F-K-E-A-F-NH2] (Ac-DWFKAFYDKVAEKFKEAF-NH2)
[1]; [12]
  HDL-inflammatory index: slightly but significantly improved
[1]; [13]
  HDL-inflammatory index: only able to achieve this degree of efficacy when co-administered with niclosamide
Aortic sinus lesion area
  lesions in old apoE null mice versus time zero: neither niclosamide nor L-4F without niclosamide significantly reduced lesions
[4]
  protective capacity of HDL to inhibit LDL-induced monocyte chemotactic activity: did not significantly alter
[5]
  time after an oral dose at which essentially non-detectable in the circulation: 6 h
[5]; po
  association with pre-beta HDL and HDL: rapidly associates with pre-beta HDL and HDL
[6]
  degradation after oral administration: rapidly degraded

## D-4F: 4F (SEQ ID NO:5) where one or more residues are D form amino acids (DWFKAFYDKVAEKFKEAF; also: one or more residues D-form, places not given here)
[1]; [13]
  HDL-inflammatory index: able to render apoE null mouse HDL anti-inflammatory to a degree comparable to normal human HDL
[7]
  HDL function: did not significantly improve HDL function
[8]; after an oral dose
  association with pre-beta HDL and HDL: rapidly associates with pre-beta HDL and HDL
[8]; oral dose
  time after an oral dose at which essentially non-detectable in the circulation: 6 h

## CC(C)c1c(C(=O)Nc2ccccc2)c(-c2ccccc2)c(-c2ccc(F)cc2)n1CC[C@@H](O)C[C@@H](O)CC(=O)O [atorvastatin, reference compound]
[7]
  HDL function: did not improve HDL function

## O=C(Nc1ccc([N+](=O)[O-])cc1Cl)c1ccc(Cl)cc1O [BP-1001]
[1]
  HDL-inflammatory index, potency relative to niclosamide: more potent than niclosamide
[9]
  LDL-inflammatory index, potency relative to niclosamide: more potent

## CC(=O)N[C@@H](CC(=O)O)C(=O)N[C@@H](Cc1c[nH]c2ccccc12)C(=O)N[C@@H](Cc1ccccc1)C(=O)N[C@@H](CCCCN)C(=O)N[C@@H](C)C(=O)N[C@@H](Cc1ccccc1)C(=O)N[C@@H](Cc1ccc(O)cc1)C(=O)N[C@@H](CC(=O)O)C(=O)N[C@@H](CCCCN)C(=O)N[C@H](C(=O)N[C@@H](C)C(=O)N[C@@H](CCC(=O)O)C(=O)N[C@@H](CCCCN)C(=O)N[C@@H](Cc1ccccc1)C(=O)N[C@@H](CCCCN)C(=O)N[C@@H](CCC(=O)O)C(=O)N[C@@H](C)C(=O)N[C@@H](Cc1ccccc1)C(N)=O)C(C)C [^14C-L-4F] (Ac-DWFKAFYDKVAEKFKEAF-NH2; N-terminus and C-terminus assumed)
[1]; FIG. 28: 10 μg 14C-L-4F with 100 μg niclosamide, 5 hours
  HDL inflammatory index: biologically active when given with niclosamide
[10]
  Cmax: ~150 ng/mL
[11]
  duration of (low) plasma levels: no more than 5 minutes
  persistence of plasma level at a lower level: up to four hours
  persistence of the Cmax plasma level: persisted for more than an hour

## O=C(Nc1ccc([N+](=O)[O-])cc1Cl)c1ccc(O)c(Cl)c1 [BP-1012]
[1]
  HDL-inflammatory index, potency relative to niclosamide: more potent than niclosamide
[9]
  LDL-inflammatory index, potency relative to niclosamide: more potent

## O=C(Nc1ccc([N+](=O)[O-])cc1Cl)c1cc(Cl)ccc1O [ethanolamine salt, 5-chloro-salicyl-(2-chloro-4-nitro) anilide 2-aminoethanol salt]
[3]
  solubility in water: 180 to 280 µg/mL
